Measurements published in patent US20110263693A1, “CELASTROL, GEDUNIN, AND DERIVATIVES THEREOF AS HSP90 INHIBITORS” (DANA-FARBER CANCER INSTITUTE, INC., priority 2006, published 2011).
Residues, ends and D or L forms follow the SMILES beside them. *: point of attachment. Cbz = O=C(OCc1ccccc1)*

Legend:
gedunin signature = assay: Connectivity Map query with the gedunin signature; assay type: cell-based, human; parameters: key to gedunin score (connectivity score): connectivity score, based on Kolmogorov-Smirnov statistic; conditions: for gedunin score (connectivity score): enrichment of the gedunin signature (20 μM gedunin at 6 hours, LNCaP) in the compound's Connectivity Map profiles, 6 hr treatment; for gedunin rank: rank by gedunin score among 164 Connectivity Map compounds
Description: (§1) Indeed, a major challenge in cell-based chemical biology and chemical genomics is the identification of compounds' targets (Gardner et al., 2003). We hypothesized that gene expression signatures could be used to identify compound action based on the similarity of such compound-induced signatures to signatures of existing drugs of known mechanism. We therefore employed a collection of gene expression profiles of drug-treated cell lines that was developed in our lab, termed the Connectivity Map (Lamb et al., 2006). This database comprises 453 genome-wide Affymetrix expression profiles derived from the treatment of human cell lines with 164 small molecules, primarily FDA-approved drugs. A 6 hr treatment time was chosen in an attempt to capture the primary, and potentially mechanistic, effects of the compounds rather than the downstream phenotypic consequences.
(§2) In order to use the Connectivity Map to gain insight into celastrol and gedunin function, we first defined a gene expression signature of celastrol and gedunin activity. The expression signatures of celastrol and gedunin were derived by expression profiling of RNA from LNCaP cells treated with celastrol (1.25 μM), gedunin (20 μM), and vehicle (DMSO) for 6 hr; signatures were defined using comparative marker selection to identify transcripts that distinguished between the compound- and vehicle-treated profiles by the signal-to-noise (SNR) metric. The enrichment of these signatures in the gene expression profiles of the Connectivity Map database was then assessed using a gene enrichment metric, the connectivity score, based on the Kolmogorov-Smirnov statistic (Lamb et al., 2003).
(§3) The celastrol and gedunin signatures were developed from RMA-processed microarray data from LNCaP cells treated with 1.25 μM celastrol or 20 μM gedunin for 6 hours. Comparative marker selection was used to identify markers that distinguished celastrol- and/or gedunin-treated samples from vehicle-treated samples by the median SNR (Golub et al., 1999). The top 50 markers that increased and decreased relative to vehicle-treated controls were used as the signatures.
(§4) The current version of the Connectivity Map data set (build01) contains genome-wide expression data for 453 treatment and vehicle control pairs, representing 164 distinct small molecules. Cell treatments and Affymetrix profiling were predominantly carried out in MCF7 cells with 6 hr treatments as detailed (Table 4) (Lamb et al., 2006). Enrichment of the induced and repressed genes of a signature within each Connectivity Map treatment profile was estimated with a metric based on the Kolmogorov-Smirnov statistic as described (Lamb et al., 2003, Lamb et al., 2006). Connectivity Map data are available at www.broad.mit.edu/cmap/ and GEO (accession number GSE5258).
(§5) For the celastrol and gedunin signatures, RMA-processed data was filtered and thresholded (min fold change=2, min absolute change=50, floor=10, ceiling=16000). Comparative marker selection (GenePattern) was used to identify markers that distinguished celastrol- and/or gedunin-treated samples from vehicle-treated samples by the median SNR. The top fifty markers that increased and decreased relative to vehicle treated controls were used as the celastrol, gedunin, or joint celastrol/gedunin signatures.
(§6) The current version of The Connectivity Map dataset (build01) contains genome-wide expression data for 453 treatment and vehicle control pairs, representing 164 distinct small molecules. Cell treatments were predominantly carried out in the MCF7 cell line for 6 h as detailed in Table 4. Affymetrix profiling was then carried out as described (Lamb et al., 2006).

celastrol signature = assay: Connectivity Map query with the celastrol signature; assay type: cell-based, human; parameters: key to celastrol score (connectivity score): connectivity score, based on Kolmogorov-Smirnov statistic; conditions: for celastrol score (connectivity score): enrichment of the celastrol signature (1.25 μM celastrol at 6 h, LNCaP) in the compound's Connectivity Map profiles, 6 hr treatment; for celastrol rank: rank by celastrol score among 164 Connectivity Map compounds
Description: as §1, §2, §3, §4, §5, §6

Molecule | gedunin score (connectivity score) (gedunin signature) | celastrol score (connectivity score) (celastrol signature) | gedunin rank (gedunin signature) | celastrol rank (celastrol signature)
CS(=O)(=O)c1ccc(C2=C(c3ccccc3)C(=O)OC2)cc1 [rofecoxib] | 0.148 | 0.088 |  | 
C/C(=C\c1ccc(C(=O)O)cc1)c1ccc2c(c1)C(C)(C)CCC2(C)C [TTNPB] | 0.095 | 0 | 74 | 97
CC#CCC(C)[C@H](O)/C=C/[C@@H]1[C@H]2C/C(=C/CCCC(=O)O)C[C@H]2C[C@H]1O (some centres unmarked) [iloprost] | 0.101 | 0.098 |  | 
COC1=C2C[C@@H](C)C[C@H](OC)[C@H](O)[C@@H](C)/C=C(\C)[C@H](OC(N)=O)[C@@H](OC)/C=C\C=C(/C)C(=O)NC(=CC1=O)C2=O [geldanamycin, reference compound] | 0.74 | 0.676 |  | 
ikarugamycin | 0 | 0.172 | 124 | 59
O=C(O)c1ccccc1Nc1ccccc1 [N-phenylanthranilic acid] | −0.472 | 0 |  | 
O=C(O)c1ccccc1Nc1cccc(C(F)(F)F)c1 [flufenamic acid] | 0 | 0 |  | 
CS(=O)(=O)c1ccc(-n2nc(C(F)(F)F)cc2-c2ccc(F)cc2)cc1 [SC-58125] | 0.09 | −0.112 |  | 
C=C1C[C@@H]2[C@H](CC[C@]3(C)C(=O)CC[C@@H]23)[C@@]2(C)C=CC(=O)C=C12 [exemestane] | 0 | 0.427 |  | 
Cc1ccc(N(CC2=NCCN2)c2cccc(O)c2)cc1 [phentolamine] | 0 | 0 |  | 
S=c1nc[nH]c2nc[nH]c12 [mercaptopurine] | 0.21 | −0.121 |  | 
COC(=O)Nc1nc2ccc(C(=O)c3cccs3)cc2[nH]1 [nocodazole] | 0.436 | 0.517 |  | 
C[C@]12CC[C@@H]3c4ccc(O)cc4C[C@@H](CCCCCCCCC[S+]([O-])CCCC(F)(F)C(F)(F)F)[C@H]3[C@@H]1CC[C@@H]2O (some centres unmarked) [fulvestrant] | 0.19 | 0.069 |  | 
CN1CCN(CCCN2c3ccccc3Sc3ccc(Cl)cc32)CC1 [prochlorperazine] | 0.507 | 0.559 |  | 
CN(C)C(=N)N=C(N)N [metformin] | −0.108 | −0.029 |  | 
NCCc1ccc(O)c(O)c1 [dopamine] | 0 | −0.596 |  | 
O=c1c(O)c(-c2ccc(O)c(O)c2)oc2cc(O)cc(O)c12 [quercetin] | −0.431 | −0.111 |  | 
COC[C@H]1OC(=O)c2coc3c2[C@@]1(C)C1=C(C3=O)[C@@H]2CCC(=O)[C@@]2(C)C[C@H]1OC(C)=O [wortmannin] | 0.126 | −0.324 |  | 
CC1=C(/C=C/C(C)=C/C=C/C(C)=C/C(=O)O)C(C)(C)CCC1 [tretinoin] | −0.206 | −0.084 |  | 
COc1cc2ncnc(Nc3ccc(F)c(Cl)c3)c2cc1OCCCN1CCOCC1 [gefitinib] | 0 | −0.713 |  | 
CC(C)C[C@@H](C=O)NC(=O)[C@H](CC(C)C)NC(=O)[C@H](CC(C)C)NC(=O)OCc1ccccc1 [MG-132] (Cbz-Leu-Leu-Leu-aldehyde) | 0.912 | 0.902 |  | 

Molecule | gedunin score (connectivity score) (gedunin signature) | celastrol score (connectivity score) (celastrol signature) | gedunin rank (gedunin signature) | celastrol rank (celastrol signature)
Nc1ncn([C@H]2C[C@H](O)[C@@H](CO)O2)c(=O)n1 [decitabine] | 0 | 0 |  | 
Cc1ccc(-c2cc(C(F)(F)F)nn2-c2ccc(S(N)(=O)=O)cc2)cc1 [celecoxib] | 0.114 | −0.01 |  | 
COc1cc2ncnc(Nc3cccc(Cl)c3)c2cc1OC [tyrphostin AG-1478] | 0.529 | 0 | 14 | 127
C[C@@H](N)[C@H]1CC[C@H](C(=O)Nc2ccncc2)CC1 [Y-27632] | −0.353 | 0 |  | 
CC/C=C\C/C=C\C/C=C\C/C=C\C/C=C\C/C=C\CCC(=O)OCC [docosahexaenoic acid ethyl ester] | 0.493 | 0.572 | 21 | 14
CC(=O)N(O)CCCCCNC(=O)CCC(=O)N(O)CCCCCNC(=O)CCC(=O)N(O)CCCCCN [deferoxamine] | 0 | −0.175 |  | 
CO[C@@H]1[C@@H](OC(N)=O)[C@@H](O)[C@H](Oc2ccc3c(O)c(NC(=O)c4ccc(O)c(CC=C(C)C)c4)c(=O)oc3c2C)OC1(C)C [novobiocin] | 0.261 | 0.167 |  | 
CCCCC/C=C\C/C=C\C/C=C\C/C=C\CCCC(=O)O [arachidonic acid] | −0.222 | 0 |  | 
Cn1cnc([N+](=O)[O-])c1Sc1ncnc2nc[nH]c12 [azathioprine] | 0.361 | 0.552 |  | 
O=C(O)c1cc(/N=N/c2ccc(S(=O)(=O)Nc3ccccn3)cc2)ccc1O [sulfasalazine] | 0 | 0 |  | 
CC(=O)Oc1ccccc1C(=O)O [acetylsalicylic acid] | 0 | 0.154 |  | 
CCCC(=O)Nc1ncnc2c1ncn2[C@@H]1O[C@@H]2COP(=O)(O)O[C@H]2[C@H]1OC(=O)CCC [bucladesine] | −0.144 | 0 |  | 
Cc1ccc2c(c1)C(=O)C1(O)CCN(c3ccccc3)C1=N2 (centres unmarked) [blebbistatin] | 0 | 0 | 107 | 87
O=C(/C=C/c1ccc(O)c(O)c1)c1ccc(O)cc1O [butein] | 0.45 | 0.295 |  | 
CCCc1c(OCCCCc2nnn[nH]2)ccc(C(C)=O)c1O [tomelukast] | 0 | 0.388 |  | 
O=CC[C@@H](O)[C@H](O)[C@H](O)CO [2-deoxy-D-glucose] | 0.378 | 0 |  | 
CCOC(=O)C1=C(C)NC(=S)NC1c1cccc(O)c1 (centres unmarked) [monastrol] | 0.069 | 0.226 |  | 
Oc1cccc2c(O)nccc12 [1,5-isoquinolinediol] | 0 | −0.608 |  | 
COC(=O)CNC(=O)C(=O)OC [dimelhyloxalylglycine] | 0 | 0.326 | 119 | 44
O=C1NC(=O)c2cc(Nc3ccccc3)c(Nc3ccccc3)cc21 [4,5-dianilinophthalimide] | 0 | 0 |  | 
CN1CCN(CCCN2c3ccccc3Sc3ccc(C(F)(F)F)cc32)CC1 [trifluoperazine, reference compound] | 0.559 |  |  | 
